Assay results: article PMC4650734, “FV-162 is a novel, orally bioavailable, irreversible proteasome inhibitor with improved pharmacokinetics displaying preclinical efficacy with continuous daily dosing” (Cell Death & Disease, 2015)

How the values were obtained:
CT-L proteasome activity = CT-L proteasome activity in RBCs of treated mice; type: in vivo, mouse; settings: by 24 h after treatment, murine RBCs, data not shown
Experimental: Cells were harvested by centrifugation at 1200 r.p.m. at room temperature. Cell pellets were washed with PBS and lysed with assay lysis buffer (50 mM HEPES (2-[4-(2-hydroxyethyl) piperazin-1-yl]ethanesulfonic acid)), pH 7.5; 150 mM NaCl; 1% Triton X-100; 2 mM ATP). Cell lysates were incubated on ice for 30 min, mixed by vortex every 5 min, and centrifuged at 12 000 × g for 10 min. Supernatants were transferred to a 96-well plate in triplicate. For each assay, 10 μg of total protein were incubated for 1 h at 37 °C with increasing concentrations (0.001–10 μM) of test compound or vehicle control diluted in assay buffer (50 mM Tris-HCl (tris(hydroxymethyl)aminomethane-HCl), pH 7.5; 150 mM NaCl). After incubation, a specific fluorogenic proteasome substrate was added to each assay reaction (40 μM in a total volume of 100 μl). N-Succinyl-Leu-Leu-Val-Tyr-7-amino-4-methylcoumarin (Suc-Leu-Leu-Val-Tyr-AMC) was used for measuring CT-L activity, t-butoxycarbonyl- Leu-Arg-Arg-7-amino-4-methylcoumarin (Boc-Leu-Arg-Arg-AMC) for T-L activity, and benzyloxycarbonyl-L-leucyl-L-leucyl-L-glutamyl-7-amino-4-methylcoumarin (Z-Leu-Leu-Glu-AMC) for C-L activity. The excitation wavelength was 360 nm and the fluorescence emission of free AMC released during the enzymatic reaction was detected at 460 nm on a SpectraMax M5 fluorescent spectrophotometric plate reader (Molecular Devices, Sunnyvale, CA, USA). AMC release rate was measured at 37 °C in a kinetic mode, recording every 5 min for 30 min.
Five-to-six-week-old male NOD/SCID mice were administered vehicle (5% DMSO, 20% Cremophor) or proteasome inhibitors either intravenously or by oral gavage (3 mice per group), and 20–50 μl of venous blood were collected from each mouse over 24 h. Blood samples were mixed with heparin (APP Pharmaceuticals; Schaumburg, IL, USA) in 0.5-ml tubes in accordance with the manufacturer's instructions. After centrifugal separation at 3000 × g for 10 min, RBCs in the bottom layer were transferred into a new tube and stored at −70 °C until use. RBCs were lysed with assay lysis buffer and incubated on ice for 30 min, mixing by vortex every 5 min, and centrifuged at 12 000 × g for 10 min. Supernatants were transferred to a 96-well plate and proteasome activity was measured as described in 'Cell lysates' section.

[1] = Metabolic stability assay with pooled mouse liver microsomes; type: in vitro ADME; settings: 5 μM compound, 15 min, 0.5 mg/ml pooled mouse liver microsomes, LC/MS
Experimental: Pooled liver microsomes isolated from male CD-1 mice were purchased from BD Biosciences (San Jose, CA, USA). Metabolic stability was calculated by measuring the percentage of 5 μM of each test compound remaining after 15 min incubation with 0.5 mg/ml liver microsomes at 37 °C. Compounds were detected by LC/MS using a Xevo quadrupole time-of-flight mass spectrometer and an ACQUITY ultra-performance LC (UPLC) system (Waters Inc., Milford, MA, USA) to determine relative peak areas of each parent compound.

rats = settings: cited from earlier work
[2] = test system: patients with multiple myeloma; settings: infusion over 30 min; cited from earlier work

## CC(C)C[C@H](NC(=O)[C@H](Cc1ccccc1)NC(=O)c1cnccn1)B(O)O [bortezomib, reference compound]
CT-L proteasome activity
  proteasome activity recovered, of baseline levels: > 50%

## CC(C)C[C@H](NC(=O)[C@H](CCc1ccccc1)NC(=O)CN1CCOCC1)C(=O)N[C@@H](Cc1ccccc1)C(=O)N[C@@H](CC(C)C)C(=O)[C@@]1(C)CO1 [carfilzomib]
[1]
  percentage of parent compound remaining: 70%
rats; 8 mg/kg, bolus infusion, rats
  rats for which dose was lethal: 44%
rats; rat, in vivo
  toxicity of 30 min infusion: not toxic
[2]
  dose tolerated without adverse effects: up to 56 mg/m^2
